In ChEMBL document CHEMBL1122755, “Synthesis and murine antineoplastic activity of bis[(carbamoyloxy)methyl] derivatives of pyrrolo[2,1-a]isoquinoline” (1984) one finds T/C and Weight change data, which are given here for 9 compounds.

The structures appear in SMILES notation. Active and inactive are the calls of the source. The calls are words filed in the database; no cut-off is given here.

Assay [1] has as its system Mus musculus. Kind of assay: % T/C value was measured against Murine P388 Lymphocytic Leukemia cells in CDF1 mice at the dose 100 mg/kg. The class given is functional.
Assay [2] has as its system Mus musculus. Kind of assay: % T/C value was measured against Murine P388 Lymphocytic Leukemia cells in CDF1 mice at the dose 12.5 mg/kg. In kind it is functional.
Assay [3] deals with Mus musculus. The experiment in a line: % T/C value was measured against Murine P388 Lymphocytic Leukemia cells in CDF1 mice at the dose 200 mg/kg; toxic. The class given is functional, organism-based. Further details: dose 200 mg/kg.
In assay [4] the test system is Mus musculus. The experiment in a line: % T/C value was measured against Murine P388 Lymphocytic Leukemia cells in CDF1 mice at the dose 25 mg/kg. In kind it is functional.
In assay [5] the test system is Mus musculus. The experiment in a line: % T/C value was measured against Murine P388 Lymphocytic Leukemia cells in CDF1 mice at the dose 50 mg/kg. The class given is functional.
Assay [6] deals with Mus musculus. Kind of assay: % T/C value was measured against Murine P388 Lymphocytic Leukemia cells in CDF1 mice at the dose 6.25 mg/kg. The class given is functional.
Assay [7] has as its system Mus musculus. The experiment in a line: Change in weight of P388 lymphocytic leukemia infected mice was determined when the compound was administered at dose of 100 mg/kg. The class given is functional.
Assay [8] has as its system Mus musculus. Kind of assay: Change in weight of P388 lymphocytic leukemia infected mice was determined when the compound was administered at dose of 12.5 mg/kg. In kind it is functional.
Assay [9] has as its system Mus musculus. Kind of assay: Change in weight of P388 lymphocytic leukemia infected mice was determined when the compound was administered at dose of 25 mg/kg. The class given is functional.
Assay [10] deals with Mus musculus. Kind of assay: Change in weight of P388 lymphocytic leukemia infected mice was determined when the compound was administered at dose of 50 mg/kg. In kind it is functional.
Assay [11] deals with Mus musculus. Kind of assay: Change in weight of P388 lymphocytic leukemia infected mice was determined when the compound was administered at dose of 6.25 mg/kg. The class given is functional.
Assay [12] has as its system Mus musculus. Kind of assay: % T/C value was measured against Murine P388 Lymphocytic Leukemia cells in CDF1 mice at the dose 200 mg/kg. In kind it is functional.
Assay [13] has as its system Mus musculus. The experiment in a line: Change in weight of P388 lymphocytic leukemia infected mice was determined when the compound was administered at dose of 200 mg/kg. In kind it is functional.
Assay [14] relates to Homo sapiens. Kind of assay: Optimum % T/C value was measured against Human MX-1 breast Xenograft at the dose of 600 mg/kg (s.c.), schedule was Q01DX03 (three doses), day 1(first dose was given, tumor was implanted on day zero). In kind it is functional. Background: A xenograft is tissue or cells of one species grown in another, often human tumour cells in immunodeficient mice.

For assay [15], the system named is Homo sapiens. Kind of assay: Optimum % T/C value was measured against Human CX-1 colon Xenograft at the dose of 300-600mg/kg, schedule was Q01DX04 (four doses), day 1(first dose was given, tumor was implanted on day zero); IA means inactive. The class given is functional, organism-based.
Assay [16] has as its system Homo sapiens. Kind of assay: Optimum % T/C value was measured against Human LX-1 lung Xenograft at the dose of 150 mg/kg, schedule was Q01DX03, day 1. In kind it is functional.
For assay [17], the system named is Mus musculus. Kind of assay: % T/C value was measured against Murine P388 Lymphocytic Leukemia cells in CDF1 mice at the dose 100 mg/kg; toxic. In kind it is functional, organism-based. Further details: dose 100 mg/kg.
Assay [18] relates to Mus musculus. The experiment in a line: % T/C value was measured against Murine P388 Lymphocytic Leukemia cells in CDF1 mice at the dose 3.13 mg/kg. The class given is functional.
The test system of assay [19] is Mus musculus. Kind of assay: % T/C value was measured against Murine P388 Lymphocytic Leukemia cells in CDF1 mice at the dose 50 mg/kg; toxic. In kind it is functional, organism-based. Further details: dose 50 mg/kg.
For assay [20], the system named is Mus musculus. Kind of assay: Optimum % T/C value was measured against Murine B16 melanocarcinoma cells at the dose of 12.5 mg/kg, schedule was Q01DX09, day 1. The class given is functional.
The subject of assay [21] is Mus musculus. Kind of assay: Optimum % T/C value was measured against Murine CD8F1 mammary cells at the dose of 250 mg/kg (subcutaneous), schedule was Q01DX01 (one dose), day 21(21 dose was given, tumor was implanted on day zero). In kind it is functional.
Assay [22] relates to Mus musculus. Kind of assay: Optimum % T/C value was measured against Murine L1210 lymphoid leukemia cells at the dose of 25 mg/kg, schedule was Q01DX09 (nine doses), day 1(first dose was given, tumor was implanted on day zero). In kind it is functional.
In assay [23] the test system is Mus musculus. Kind of assay: Optimum % T/C value was measured against Murine Lewis lung carcinoma cells at the dose of 3.12-50mg/kg, schedule was Q01DX09 (nine doses), day 1(first dose was given, tumor was implanted on day zero); inactive. In kind it is functional, organism-based.
For assay [24], the system named is Mus musculus. Kind of assay: Optimum % T/C value was measured against Murine colon 38 cells at the dose of 100 mg/kg (subcutaneous), schedule was Q01DX02 (two doses), day 2(second dose was given, tumor was implanted on day zero). The class given is functional, MC-38.
Assay [25] deals with Mus musculus. Kind of assay: Change in weight of P388 lymphocytic leukemia infected mice was determined when the compound was administered at dose of 3.13 mg/kg. In kind it is functional.
The test system of assay [26] is Mus musculus. Kind of assay: % T/C value was measured against Murine P388 Lymphocytic Leukemia cells in CDF1 mice at the dose 25 mg/kg; toxic. In kind it is functional, organism-based. Further details: dose 25 mg/kg.

On to `COc1ccc2c(c1)CCn1c(C)c(COC(=O)NC(=O)NC3CCCCC3)c(COC(=O)NC(=O)NC3CCCCC3)c1-2`, for which the T/C in the assay with Mus musculus [1] is 92%; in the assay on Mus musculus [2], 134%; in the assay on Mus musculus [3], “Toxic”; with Mus musculus [4], 137%; in the assay on Mus musculus [5], 151%; in the assay with Mus musculus [6], 137%. The Weight change with Mus musculus [7] is recorded as -6 g; in the assay on Mus musculus [8], -4.4 g; in the assay on Mus musculus [9], -6.7 g; with Mus musculus [10], -6.5 g; in the assay on Mus musculus [11], -3.3 g.
Turning to `CNC(=O)OCc1c(COC(=O)NC)c(-c2ccccc2)n2c1CCC2`, the T/C in the assay with Mus musculus [1] is 124%; in the assay with Mus musculus [12] it was 60%; with Mus musculus [5], 124%. For the same compound, the Weight change in the assay with Mus musculus [7] is -1.8 g; in the assay with Mus musculus [10], -2.1 g; in the assay on Mus musculus [13], -3.5 g.
With `COc1ccc2c(c1)CCn1c(C)c(COC(=O)NC(C)C)c(COC(=O)NC(C)C)c1-2`, the T/C with Homo sapiens [14] is -100%; with Homo sapiens [16], 55%; with Mus musculus [17], “Toxic”; in the assay on Mus musculus [2], 153%; in the assay on Mus musculus [3], “Toxic”; in the assay on Mus musculus [4], 153%. In addition, the T/C in the assay on Mus musculus [18] was 142%; with Mus musculus [19], “Toxic”; with Mus musculus [6] it was 136%; in the assay with Mus musculus [20], 180%; in the assay with Mus musculus [21] it was -27%; in the assay with Mus musculus [22] it was 152%. Moreover, the T/C in the assay on Mus musculus [24] was determined as 48%. Besides, the T/C entry in the assay with Homo sapiens [15] and with Mus musculus [23] was “inactive” throughout. Besides, the Weight change with Mus musculus [8] is on record as -3 g; in the assay with Mus musculus [9] it was -5.6 g; in the assay with Mus musculus [25], -1.1 g; with Mus musculus [11], -2.1 g.
As for `CNC(=O)OCc1c(COC(=O)NC)c(-c2ccc(OC)cc2)n2c1CCC2`, the T/C with Mus musculus [1] is 125%; in the assay with Mus musculus [2], 132%; in the assay with Mus musculus [3] it was “Toxic”; in the assay with Mus musculus [4], 132%; in the assay on Mus musculus [5], 131%. Besides, the Weight change was -4 g in the assay on Mus musculus [7], -3.2 g in the assay on Mus musculus [8], -3.3 g in the assay on Mus musculus [9] and -4 g with Mus musculus [10].
Regarding `CNC(=O)OCc1c(COC(=O)NC)c(-c2ccc(OC)cc2)n(C)c1C`, the T/C entry is “Toxic” in the assay with Mus musculus [17]; 138% in the assay with Mus musculus [2]; 145% in the assay with Mus musculus [4]; 152% in the assay with Mus musculus [5]; 135% with Mus musculus [6]. For the same compound, the Weight change in the assay on Mus musculus [8] was -3.2 g; with Mus musculus [9], -3.4 g; in the assay with Mus musculus [10], -4.4 g; in the assay on Mus musculus [11], -2.4 g.
Take `CNC(=O)OCc1cn2c(c1COC(=O)NC)-c1ccccc1CC2C` (stereo not drawn): the T/C entry in the assay with Mus musculus [17] is “Toxic”; in the assay with Mus musculus [2], 153%; in the assay with Mus musculus [3], “Toxic”; with Mus musculus [4], 169%; with Mus musculus [18], 138%; in the assay with Mus musculus [5], 79%. Further, in the assay with Mus musculus [6], the T/C is 138%. For the same compound, the Weight change was -4.4 g with Mus musculus [8]; -4.8 g in the assay with Mus musculus [9]; -0.3 g in the assay on Mus musculus [25]; -5 g in the assay with Mus musculus [10]; -1 g in the assay on Mus musculus [11].
Turning to `CCNC(=O)OCc1cn2c(c1COC(=O)NCC)-c1ccccc1CC2C` (stereo not drawn), the T/C entry with Mus musculus [17] is “Toxic”; with Mus musculus [2], 185%; in the assay with Mus musculus [3], “Toxic”; in the assay on Mus musculus [26] it was “Toxic”; with Mus musculus [18] it was 142%; in the assay with Mus musculus [19] it was “Toxic”. Moreover, in the assay on Mus musculus [6], the T/C is recorded as 141%. For the same compound, the Weight change with Mus musculus [8] is reported as -6 g; in the assay on Mus musculus [25], -1.3 g; with Mus musculus [11], -1.2 g.
For `CNC(=O)OCc1c(COC(=O)NC)c(-c2ccccc2)n(C)c1C`, the T/C entry in the assay on Mus musculus [17] is “Toxic”; in the assay on Mus musculus [2] it was 130%; in the assay on Mus musculus [4], 145%; in the assay with Mus musculus [5], 90%; in the assay with Mus musculus [6] it was 135%. The Weight change in the assay with Mus musculus [8] is -3.3 g; with Mus musculus [9], -3.9 g; with Mus musculus [10] it was -4.6 g; in the assay on Mus musculus [11], -2.5 g.
On to `CC1Cc2ccccc2-c2c(COC(=O)NC3CCCCC3)c(COC(=O)NC3CCCCC3)cn21` (stereo not drawn), for which the T/C entry in the assay on Mus musculus [17] was “Toxic”; with Mus musculus [2], 178%; with Mus musculus [3], “Toxic”; with Mus musculus [4], 182%; in the assay on Mus musculus [5], 101%. The values for the Weight change in the assay with Mus musculus [8], in the assay with Mus musculus [9] and with Mus musculus [10] were -4.3%, -4.6% and -6.4%, respectively.
